Test results reported in US8772490B2, “Optically active diazabicyclooctane derivatives and process for preparing the same” (Meiji Seika Pharma Co., Ltd., priority 2010, dated 2014).

Assays:
[1] = test system: P. aeruginosa PAO1 variant, which constitutively expresses AmpC; assay: Combinatorial antibacterial activity: MIC of piperacillin (PIPC) with test compound, agar plate dilution; format: cell-based, Pseudomonas aeruginosa; conditions: for MIC (antimicrobial activity of Piperacillin (PIPC) in combination with the compound): Table 7, PIPC in combination with 4 μg/mL of the compound
Procedure: The biological activity of the above-mentioned compounds represented by formulae (H) and (s) can be measured as follows. Specifically, an enzyme inhibitory activity (IC50 value) against AmpC enzyme which is a class C β-lactamase was determined using nitrocephin as a substrate to check whether or not the compounds had the inhibitory activity and compare the activities of them. Further, using constitutive AmpC producing Pseudomonas aeruginosa, a combined antimicrobial activity (MIC) was measured when using Piperacillin (PIPC) as an antibiotic and the compound of formula (H) or (s) in combination to check whether or not the antimicrobial activity of PIPC could be restored.
The combinatorial effect of the test compound with a β-lactam agent against bacteria was evaluated using AmpC constitutive expression strain selected from P. aeruginosa PAO1 through agent exposure. Using piperacillin (PIPC, Sigma-Aldrich) as a β-lactam agent, measurement was conducted by agar plate dilution process in which minimal inhibitory concentration (MIC) of PIPC is based on Clinical and Laboratory Standards Institute (CLSI process). That is, an agara plate containing 4 μg/mL (final concentration) of test compound and PIPC at each concentration in Mueller-Hinton agar (Becton, Dickinson and Company) was made, and bacteria cultured overnight in cation-adjusted Muller-Hinton broth (Becton, Dickinson and Company) were adjusted in the same medium so as to have 10^4 CFU/spot and inoculated on a plate containing an agent. This plate containing an agent was cultured overnight at 35° C., and the minimum agent concentration in which no growth of bacteria is observed was determined to be MIC.

[2] = target: AmpC β-lactamase (Pseudomonas aeruginosa (strain ATCC 15692 / DSM 22644 / CIP 104116 / JCM 14847 / LMG 12228 / 1C / PRS 101 / PAO1), UniProt P24735); format: biochemical
Sequence of AmpC β-lactamase (P24735 27-397): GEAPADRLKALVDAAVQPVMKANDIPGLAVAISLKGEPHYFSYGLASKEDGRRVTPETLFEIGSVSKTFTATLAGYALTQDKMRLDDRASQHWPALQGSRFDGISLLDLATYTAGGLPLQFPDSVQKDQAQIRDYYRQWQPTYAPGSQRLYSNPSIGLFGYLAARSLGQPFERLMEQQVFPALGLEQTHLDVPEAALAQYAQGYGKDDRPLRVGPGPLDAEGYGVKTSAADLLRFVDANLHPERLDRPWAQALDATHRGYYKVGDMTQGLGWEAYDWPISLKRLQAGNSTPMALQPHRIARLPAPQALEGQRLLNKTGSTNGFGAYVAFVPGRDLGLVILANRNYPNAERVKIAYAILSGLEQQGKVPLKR
Procedure: The biological activity of the above-mentioned compounds represented by formulae (H) and (s) can be measured as follows. […] Further, using constitutive AmpC producing Pseudomonas aeruginosa, a combined antimicrobial activity (MIC) was measured when using Piperacillin (PIPC) as an antibiotic and the compound of formula (H) or (s) in combination to check whether or not the antimicrobial activity of PIPC could be restored.
Using P. aeruginosa PAO1 genome as a template, a DNA for encoding an AmpC β-lactamase domain excluding a signal peptide was amplified with PCR. This PCR product was incorporated into pET-28b(+)vector (Merck), introduced into E. coli BL21 (Merck), and, under induction of 1 mM isopropyl-β-D-(−)-thiogalactopyranoside (Nacalai Tesque), cultured overnight at 20° C. to express AmpC. After the bacterial cell was collected. AmpC was purified from the cell extract obtained by ultrasonic treatment, using CM Sepharose Fast Flow (GE Healthcare) and HiTrap Heparin HP (GE Healthcare) at 4° C.

Row | Structure (SMILES) | MIC (antimicrobial activity of Piperacillin (PIPC) in combination with the compound) [1] [µg/mL] | β-lactamase enzyme inhibitory activity (in words) [2] | effect of the compound in combination with an antibiotic (in words) [1]
1 | C[C@]1(Cn2ccnn2)[C@H](C(=O)[O-])N2C(=O)C[C@H]2S1(=O)=O.[Na+] [TAZ, Tazobactam, reference compound] | 64 |  | 
2 | NC(=O)[C@@H]1CC[C@@H]2CN1C(=O)N2OS(=O)(=O)[O-].[Na+] [Example 23, (2S,5R)-1,6-Diazabicyclo[3.2.1]octane-2-carboxamide, 7-oxo-6-(sulfoxy)-monosodium salt] | 4 | exhibited the activities | exhibited the activities
3 | NC(=O)[C@H]1CC[C@H]2CN1C(=O)N2OS(=O)(=O)[O-].[Na+] [Example 24, (2R,5S)-1,6-Diazabicyclo[3.2.1]octane-2-carboxamide, 7-oxo-6-(sulfoxy)-monosodium salt] | 64 | exhibited no activity | exhibited no activity
